From EP0126348A2, “Composition for rectal administration and method of promoting rectal drug absorption” (priority 1983, dated 1984)
Like-named read-outs stand apart in the source and are kept apart here.

Experiments:
[1] = Blood concentration of drug after rectal administration of suppositories to fasted dogs (bioassay); format: in vivo; details: rectal suppository, 100 mg in potency
Procedure: (§1) The suppositories were administered rectally to dogs or rabbits fasted for 24 hours. After administration, blood or urine sampling was conducted at times intervals and the drug concentration in blood or urinary drug excretion was estimated by determining the activity concentration by the bioassay method.

[2] = Urinary excretion of drug after rectal administration of suppositories to fasted rabbits (bioassay); format: in vivo; details: rabbit, 100 mg, rectal suppository, 100 mg in potency, read-out: Urinary excretion (0-6 hours)
Procedure: as §1

[3] = dog, blood, 100 mg, base WITEPSOL H-5, additive Na caprate, 3% NIKKOL MYS-40, 4%, read-out: AUC
[4] = in vivo, base WITEPSOL H-5, additive Na caprate, 3%

Work on `CO/N=C(\C(=O)N[C@@H]1C(=O)N2C(C(=O)O)=C(CSc3nc(=O)c(=O)[nH]n3C)CS[C@H]12)c1csc(N)n1` [Cefatriaxone] yielded an AUC [1, 3] of 22200 ng·h/mL.
Work on `CN[C@@H]1[C@@H](O)[C@@H](O[C@@H]2[C@@H](O)[C@H](O[C@H]3OC(CN)=CC[C@H]3N)[C@@H](N)C[C@H]2N)OC[C@]1(C)O` [Sisomicin] yielded a dose excreted at 6 h ([2]; urine, base WITEPSOL H-15, additive Na caprate, 2% NIKKOL BL-25, 4%) of 51.6%, a dose excreted at 6 h ([2]; urine, base WITEPSOL H-15, additive Na caprate, 2%) of 30.8% and a dose excreted at 6 h ([2]; urine, base WITEPSOL H-15, additive Na caprate, 3% Trisodium phosphate,4%) of 55%.
For `NCC[C@H](O)C(=O)N[C@@H]1C[C@H](N)[C@@H](O[C@H]2O[C@H](CN)[C@@H](O)[C@H](O)[C@H]2O)[C@H](O)[C@H]1O[C@H]1O[C@H](CO)[C@@H](O)[C@H](N)[C@H]1O` [Amikacin], the AUC ([1]; dog, in vivo, 100 mg, base WITEPSOL H-15, additive Na caprate, 3% NIKKOL BL-21, 3%, read-out: AUC) was 17900 ng·h/mL, the AUC ([1]; dog, in vivo, 100 mg, base WITEPSOL H-15, additive None, read-out: AUC) was 1000 ng·h/mL and the dose excreted at 6 h ([2]; in vivo, base WITEPSOL H-5, additive Na caprate, 3% NIKKOL MYS-40, 4%) was 56%. The dose excreted at 6 h ([2]; in vivo, base WITEPSOL H-5, additive Na caprate, 3% Sodium carbonate, 4%) was 55.5% and the dose excreted at 6 h [2, 4] was 35%.
For `CCN[C@@H]1C[C@H](N)[C@@H](O[C@H]2OC(CN)=CC[C@H]2N)[C@H](O)[C@H]1O[C@H]1OC[C@](C)(O)[C@H](NC)[C@H]1O` [Netilmicin], the dose excreted at 6 h ([2]; urine, base WITEPSOL H-5, additive Na caprate, 3% Lysine, 4%) was 48%, the dose excreted at 6 h ([2]; urine, base WITEPSOL H-5, additive Na caprate, 3% NIKKOL TO-10M, 4%) was 52.6% and the dose excreted at 6 h ([2]; urine, base WITEPSOL H-5, additive Na caprate, 3%) was 40%.
`CNC[C@@H]1CC[C@@H](N)[C@@H](O[C@H]2[C@H](O)[C@@H](O[C@H]3OC[C@](C)(O)[C@H](NC)[C@H]3O)[C@H](N)C[C@@H]2N)O1` [Micronomicin] showed a dose excreted at 6 h ([2]; in vivo, base WITEPSOL H-5, additive Na caprate, 3% Arginine Na, 4%) of 48.2%, a dose excreted at 6 h ([2]; in vivo, base WITEPSOL H-5, additive Na caprate, 3% NIKKOL BL-21, 4%) of 50.3% and a dose excreted at 6 h [2, 4] of 39.2%.
Compound `NC[C@H]1O[C@H](O[C@H]2[C@H](O)[C@@H](O[C@H]3O[C@H](CO)[C@@H](O)[C@H](N)[C@H]3O)[C@H](N)C[C@@H]2N)[C@H](N)[C@@H](O)[C@@H]1O` [Bekanamycin] has a dose excreted at 6 h ([2]; urine, base WITEPSOL W-35, additive Glycerol monostearate, 3% Na caprate, 3%) of 48.5%, a dose excreted at 6 h ([2]; urine, base WITEPSOL W-35, additive Na caprate, 3% Disodium phosphate,3%) of 40% and a dose excreted at 6 h ([2]; urine, base WITEPSOL W-35, additive Na caprate, 3%) of 30.1%.
With `NC[C@H]1O[C@H](O[C@H]2[C@H](O)[C@@H](O[C@H]3O[C@H](CO)[C@@H](O)[C@H](N)[C@H]3O)[C@H](N)C[C@@H]2N)[C@H](N)C[C@@H]1O` [Tobramycin] the dose excreted at 6 h ([2]; in vivo, base WITEPSOL W-35, additive Na caprate, 2% NIKKOL BL-9, 4%) was 53.8%, the dose excreted at 6 h ([2]; in vivo, base WITEPSOL W-35, additive Na caprate, 2%) was 41.6% and the dose excreted at 6 h ([2]; in vivo, base WITEPSOL W-35, additive Na caprate, 3% Disodium tatrate, 4% NIKKOL BL-9, 4%) was 49.2%.
Compound Fortimicin has an AUC ([1]; base WITEPSOL H-5, additive Na caprate, 3%) of 14800 ng·h/mL, an AUC ([1]; base WITEPSOL H-5, additive Na caprate, 3% NIKKOL BL-21, 4%) of 30000 ng·h/mL and an AUC ([1]; base WITEPSOL H-5, additive Na caprate, 3% NIKKOL MYS-40, 4%) of 21700 ng·h/mL. For the same compound, the AUC ([1]; base WITEPSOL H-5, additive Na caprate, 3% Sodium carbonate, 2%) was 21700 ng·h/mL and the AUC ([1]; base WITEPSOL H-5, additive None) was 1200 ng·h/mL.
Work on `NC[C@@H]1CC[C@@H](N)[C@@H](O[C@H]2[C@H](O)[C@@H](O[C@H]3O[C@H](CO)[C@@H](O)[C@H](N)[C@H]3O)[C@H](N)C[C@@H]2N)O1` [Dibekacin] yielded an AUC ([1]; dog, blood, 100 mg, base WITEPSOL H-5, additive NIKKOL MYS-40, 4%, read-out: AUC) of 1000 ng·h/mL, an AUC ([1]; dog, blood, 100 mg, base WITEPSOL H-5, additive Na caprate, 3% NIKKOL BL-21, 4% Disodium hydrogen phosphate, 1%, read-out: AUC) of 42000 ng·h/mL and an AUC ([1]; dog, blood, 100 mg, base WITEPSOL H-5, additive Na caprate, 3% NIKKOL BL-21, 4%, read-out: AUC) of 37000 ng·h/mL. For the same compound, the AUC ([1]; dog, blood, 100 mg, base WITEPSOL H-5, additive Na caprate, 3% NIKKOL MYS-40, 4% Sodium carbonate, 4%, read-out: AUC) was 39900 ng·h/mL, the AUC [1, 3] was 27400 ng·h/mL and the AUC ([1]; dog, blood, 100 mg, base WITEPSOL H-5, additive Na caprate, 3% Sodium carbonate, 4%, read-out: AUC) was 24400 ng·h/mL. The AUC ([1]; dog, blood, 100 mg, base WITEPSOL H-5, additive Na caprate, 3%, read-out: AUC) was 14400 ng·h/mL and the AUC ([1]; dog, blood, 100 mg, base WITEPSOL H-5, additive None, read-out: AUC) was 800 ng·h/mL.
Compound `CC(C)(O/N=C(\C(=O)N[C@@H]1C(=O)N2C(C(=O)[O-])=C(C[n+]3ccccc3)CS[C@H]12)c1csc(N)n1)C(=O)O` [Ceftazidime] has an AUC ([1]; dog, in vivo, 100 mg, base WITEPSOL H-5, additive Na caprate, 3% Lysine, 4%, read-out: AUC) of 30100 ng·h/mL, an AUC ([1]; dog, in vivo, 100 mg, base WITEPSOL H-5, additive Na caprate, 3% Na citrate, 4%, read-out: AUC) of 27600 ng·h/mL and an AUC ([1]; dog, in vivo, 100 mg, base WITEPSOL H-5, additive Na caprate, 3% Sodium carbonate, 4%, read-out: AUC) of 29800 ng·h/mL. The AUC ([1]; base WITEPSOL H-5, additive Na caprate, 3% Sodium carbonate, 4%) was 30900 ng·h/mL.
